Data as given in patent US9527857B2, “HSPC-sparing treatments for RB-positive abnormal cellular proliferation” (G1 Therapeutics, Inc., priority 2013, dated 2016).

Experiments:
CDK6/CycD3 = CDK6/CycD3 (Homo sapiens (Human), UniProt Q00534); experiment: CDK6/CycD3 kinase assay; format: biochemical
[1] = test system: ZR-75-1 (breast ductal carcinoma, Rb-positive); experiment: Cellular proliferation assay (CellTiter-Glo), ZR-75-1; format: cell-based
Method: (§1) Cellular proliferation assays were conducted using the following cancer cell lines: MCF7 (breast adenocarcinoma—Rb-positive), ZR-75-1 (breast ductal carcinoma—Rb-positive), H69 (human small cell lung cancer—Rb-negative) cells, or A2058 (human metastatic melanoma cells—Rb-negative). These cells were seeded in Costar (Tewksbury, Mass.) […] 96 well tissue culture treated white walled/clear bottom plates. Cells were treated with the compounds of Table 1 as nine point dose response dilution series from 10 uM to 1 nM. Cells were exposed to compounds and then cell viability was determined after either four (H69) or six (MCF7, ZR75-1, A2058) days as indicated using the CellTiter-Glo® luminescent cell viability assay (CTG; Promega, Madison, Wis., United States of America) following the manufacturer's recommendations. Plates were read on BioTek (Winooski, Vt.) Syngergy2 multi-mode plate reader. The Relative Light Units (RLU) were plotted as a result of variable molar concentration and data was analyzed using Graphpad (LaJolla, Calif.) Prism 5 statistical software to determine the EC50 for each compound.

HSPCs (LKS+) [2] = experiment: Bone marrow HSPC proliferation by EdU incorporation and flow cytometry; format: in vivo; settings: 150 mg/kg oral gavage, mice
Method: . JCNI 2012; 104(6):476-487 (FIG. 2A). […].
Mice were then sacrificed at the indicated times (0, 12, 24, 36, or 48 hours following compound administration), and bone marrow was harvested (n=3 mice per time point), as previously described (Johnson et al. J. Clin. Invest. (2010) 120(7), 2528-2536). Four hours before the bone marrow was harvested, mice were treated with 100 μg of EdU by intraperitoneal injection (Invitrogen). Bone marrow mononuclear cells were harvested and immunophenotyped using previously described methods and percent EdU positive cells were then determined (Johnson et al. J. Clin. Invest. (2010) 120(7), 2528-2536). In brief, HSPCs were identified by expression of lineage markers (Lin−), Sca1 (S+), and c-Kit (K+).
Four hours before animals were sacrificed and the bone marrow was harvested, mice were treated with 100 μg of EdU by intraperitoneal injection. Three mice per group were sacrificed at 12 hours and the remaining three animals per group were sacrificed at 24 hours. Results are shown in FIG. 5A as the ratio of EdU positive cells for treated animals at 12 or 24 hour time points compared to control.
Further experiments were completed with Compound T examining dose response and longer periods of compound treatment. […] […].
Both compounds were administered at 150 mg/kg by oral gavage. One hour prior to harvesting bone marrow, EdU was IP injected to label cycling cells. Bone marrow was harvested at 12, 24, 36, and 48 hours after compound treatment and the percentage of EdU positive HSPC cells was determined at each time point.

[3] = Mouse pharmacokinetics (oral gavage / intravenous); format: in vivo, mice; settings: plasma, 30 mg/kg, read-out: F (oral bioavailability)
Method: Blood samples were taken at 0, 0.25, 0.5, 1.0, 2.0, 4.0, and 8.0 hours post dosing and the plasma concentrations were determined by HPLC.

[4] = test system: MCF7 (breast adenocarcinoma, Rb-positive); experiment: Cellular proliferation assay (CellTiter-Glo), MCF7; format: cell-based
Method: The MCF7 cells were seeded in Costar (Tewksbury, Mass.) 3903 96 well tissue culture treated white walled/clear bottom plates. A nine point dose response dilution series from 10 uM to 1 nM was performed and cell viability was determined after six days of compound treatment as indicated using the CellTiter-Glo® luminescent cell viability assay (CTG; Promega, Madison, Wis., United States of America) following the manufacturer's recommendations. Plates were read on a BioTek (Winooski, Vt.) Syngergy2 multi-mode plate reader. The Relative Light Units (RLU) were plotted as a result of variable molar concentration and data was analyzed using Graphpad (LaJolla, Calif.) Prism 5 statistical software to determine the EC50 for each compound.
as §1

CDK4/CyclinD1 = CDK4/CyclinD1 (Homo sapiens (Human), UniProt P11802); experiment: CDK4/cyclinD1 kinase assay (Nanosyn, microfluidic Caliper platform); format: biochemical; settings: Table 3; read-out: CDK4/CycD1 IC50
Method: Selected compounds disclosed herein were tested in CDK4/cyclinD1, CDK2/CycA and CDK2/cyclinE kinase assays by Nanosyn (Santa Clara, Calif.) to determine their inhibitory effect on these CDKs. The assays were performed using microfluidic kinase detection technology (Caliper Assay Platform). The compounds were tested in 12-point dose-response format in singlicate at Km for ATP. Phosphoacceptor substrate peptide concentration used was 1 μM for all assays and Staurosporine was used as the reference compound for all assays. Specifics of each assay are as described below:
CDK4/CyclinD1: Enzyme concentration: 1 nM; ATP concentration: 200 μM; Incubation time: 10 hr.

[5] = test system: MMTV-c-neu (Rb-positive) tumors; experiment: MMTV-c-neu HER2-driven (Rb-positive) luminal breast cancer mouse model; format: in vivo, mice
From the text: A HER2-driven model (Rb-positive) of breast cancer (Muller W J, Sinn E, Pattengale P K, Wallace R, Leder P. Single-step induction of mammary adenocarcinoma in transgenic mice bearing the activated c-neu oncogene. Cell 1988; 54: 105-15), that expresses c-neu (the mouse ortholog of human HER2) driven by the MMTV promoter was used in the following example. This model was chosen because previous studies in murine (Yu Q, Geng Y, Sicinski P. Specific protection against breast cancers by cyclin D1 ablation. Nature 2001; 411: 1017-21; Landis M W, Pawlyk B S, Li T, Sicinski P, Hinds P W. Cyclin D1-dependent kinase activity in murine development and mammary tumorigenesis. Cancer Cell 2006; 9: 13-22; Reddy H K, Mettus R V, Rane S G, Grana X, Litvin J, Reddy E P. Cyclin-dependent kinase 4 expression is essential for neu-induced breast tumorigenesis. Cancer Res 2005; 65: 10174-8; Yu Q, Sicinska E, Geng Y, Ahnstrom M, Zagozdzon A, Kong Y, et al. Requirement for CDK4 kinase function in breast cancer. Cancer Cell 2006; 9: 23-32.) and human HER2-positive breast cancer (An H X, Beckmann M W, Reifenberger G, Bender H G, Niederacher D. Gene amplification and overexpression of CDK4 in sporadic breast carcinomas is associated with high tumor cell proliferation. Am J Pathol 1999; 154: 113-8; Samady L, Dennis J, Budhram-Mahadeo V, Latchman DS. Activation of CDK4 gene expression in human breast cancer cells by the Brn-3b POU family transcription factor. Cancer Biol Ther 2004; 3: 317-23; Takano Y, Takenaka H, Kato Y, Masuda M, Mikami T, Saegusa M, et al. Cyclin D1 overexpression in invasive breast cancers: correlation with cyclin-dependent kinase 4 and oestrogen receptor overexpression, and lack of correlation with mitotic activity.
MMTV-neu mice were generated and observed post-lactation, with tumors observed with a median latency of approximately 25 weeks. Mice were enrolled in therapy studies when tumors reached a standard size (50-60 mm3) that permitted easy serial assessment. […] Tumor volumes were calculated by the formula, Volume=[(width)^2×length]/2. Tumor-bearing mice were euthanized at the indicated times due to predefined morbidity, tumor ulceration, or a tumor size of more than 1.5 cm in diameter.
Tumors were serially assessed weekly using caliper measurements. Therapeutic intervention began once tumors reached 40-64 mm^3. Tumor volume was calculated using the formula […]. All three compounds were administered orally via medicated diets (100 mg/kg/d). Medicated diets were administered for 28 consecutive days and then stopped. RECIST criteria were used to assess objective response rates.

[6] = test system: human renal proximal tubule epithelial cells (Rb-positive); experiment: Cellular wash-out experiment, renal proximal tubule epithelial cells; format: cell-based; settings: 300 nM
Method: Alternatively, the same experiment was done using normal Renal Proximal Tubule Epithelial Cells (Rb-positive) obtained from American Type Culture Collection (ATCC, Manassas, Va.). Cells were grown in an incubator at 37° C. in a humidified atmosphere of 5% CO2 in Renal Epithelial Cell Basal Media (ATCC) supplemented with Renal Epithelial Cell Growth Kit (ATCC) in 37° C. humidified incubator.
(§2) Upon harvesting cells, samples were stained with propidium iodide staining solution and samples run on Dako Cyan Flow Cytometer. The fraction of cells in G0-G1 DNA cell cycle versus the fraction in S-phase DNA cell cycle was determined using FlowJo 7.2 0.2 analysis.

[7] = test system: HS68 cells (human fibroblast, Rb-positive); experiment: Cellular wash-out experiment, HS68 cells; format: cell-based; settings: in vitro wash-out experiment
Method: […]. On day 3, one set of treated cell samples were harvested in triplicate (0 Hour sample). Remaining cells were washed two times in PBS-CMF and returned to culture media lacking test compound. Sets of samples were harvested in triplicate at 24, 40, and 48 hours.
as §2

HSPCs (LKS+) [8] = settings: single oral dose 150 mg/kg, mice; Roberts et al.; cited from earlier work
[9] = test system: myeloid progenitor cells (LKS-); settings: single oral dose 150 mg/kg, mice; Roberts et al.; cited from earlier work
[10] = Schwartz et al. (2011); cited from earlier work
[11] = PD0332991 pharmacokinetics and HSPC arrest in humans; format: in vivo; settings: single administration
Method: When calculated half-life was longer than the duration of the experiment, the half-life was expressed as >the longest incubation time. The calculated half-life is also listed in parentheses. […] The timely resumption of cellular proliferation is necessary for tissue repair, and therefore an overly long period of arrest is undesirable in healthy cells such as HSPCs. The characteristics of a CDK4/6 inhibitor that dictate its arresting duration are its pharmacokinetic (PK) and enzymatic half-lives. Once initiated, a G1-arrest in vivo will be maintained as long as circulating compound remains at an inhibitory level, and as long as the compound engages the enzyme. […] These observations may explain the severe granulocytopenia seen with PD0332991 in the clinic.

Chain of CDK6/CycD3 (Q00534 whole entry, species assumed): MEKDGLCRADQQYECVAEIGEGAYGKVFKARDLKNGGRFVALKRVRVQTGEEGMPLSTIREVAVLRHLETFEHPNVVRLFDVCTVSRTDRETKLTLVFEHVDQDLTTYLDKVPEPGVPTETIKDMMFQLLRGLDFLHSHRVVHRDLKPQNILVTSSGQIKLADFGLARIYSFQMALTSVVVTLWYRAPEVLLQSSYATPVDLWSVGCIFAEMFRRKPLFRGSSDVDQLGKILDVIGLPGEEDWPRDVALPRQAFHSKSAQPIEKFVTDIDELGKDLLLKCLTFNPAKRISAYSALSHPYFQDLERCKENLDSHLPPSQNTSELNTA
Chain of CDK6/CycD3 (P30281 whole entry partner, species assumed): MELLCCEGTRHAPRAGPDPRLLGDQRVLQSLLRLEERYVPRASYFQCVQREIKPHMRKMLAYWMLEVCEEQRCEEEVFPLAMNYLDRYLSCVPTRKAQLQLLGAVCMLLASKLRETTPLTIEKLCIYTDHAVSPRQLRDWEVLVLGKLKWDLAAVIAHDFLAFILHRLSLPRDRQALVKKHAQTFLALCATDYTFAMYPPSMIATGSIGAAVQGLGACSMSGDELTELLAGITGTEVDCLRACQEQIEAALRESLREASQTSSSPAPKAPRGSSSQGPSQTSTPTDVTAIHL
Chain of CDK4/CyclinD1 (P11802 whole entry, species assumed): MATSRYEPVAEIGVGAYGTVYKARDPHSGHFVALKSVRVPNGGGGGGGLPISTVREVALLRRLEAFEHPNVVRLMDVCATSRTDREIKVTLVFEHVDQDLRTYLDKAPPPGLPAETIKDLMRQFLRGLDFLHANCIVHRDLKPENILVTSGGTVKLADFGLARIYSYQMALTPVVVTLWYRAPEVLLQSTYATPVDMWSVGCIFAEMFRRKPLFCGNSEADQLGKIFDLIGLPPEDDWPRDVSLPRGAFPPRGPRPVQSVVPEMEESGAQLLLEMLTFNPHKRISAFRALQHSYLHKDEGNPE
Chain of CDK4/CyclinD1 (P24385 whole entry partner, species assumed): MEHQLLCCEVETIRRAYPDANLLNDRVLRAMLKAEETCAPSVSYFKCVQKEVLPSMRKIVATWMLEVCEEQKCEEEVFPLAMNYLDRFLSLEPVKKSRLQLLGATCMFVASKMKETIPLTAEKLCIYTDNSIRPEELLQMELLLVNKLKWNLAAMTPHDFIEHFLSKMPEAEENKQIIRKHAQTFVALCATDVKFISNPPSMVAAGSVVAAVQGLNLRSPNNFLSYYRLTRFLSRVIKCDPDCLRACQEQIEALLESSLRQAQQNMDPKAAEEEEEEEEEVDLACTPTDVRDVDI

Row | IC50 (CDK6/CycD3) [nM] | bioavailability [3] [%] | IC50 (CDK4/CyclinD1) [nM] | duration of cell cycle arrest of HSPC in humans [11] | SMILES | inhibition of cellular proliferation of ZR75-1 cells (FIGS. 25-28) [1] | EdU incorporation into HSPCs at 12 and 24 hours (FIG. 5A) (HSPCs (LKS+) [2]) | inhibition of cellular proliferation of MCF-7 cells (FIGS. 21-24) [4] | tumor volume during a 28 day course of therapy ([5]; 100 mg/kg/d in chow) | objective response rate ([5]; 100 mg/kg/day medicated diet, 28 days, RECIST criteria) [%] | return to baseline levels of cell division after wash out compared to compounds T, Q, GG, or U [6] | duration of cell cycle arrest after compound is removed from the cell culture media [7] | duration of sustained reduction in HSPC EdU incorporation (FIG. 2) (HSPCs (LKS+) [8]) | time post oral dosing at which HSPC return to baseline cell division (FIG. 2) (HSPCs (LKS+) [8]) [h] | duration of sustained reduction in myeloid progenitor cell EdU incorporation (FIG. 2) [9] | time post oral dosing at which myeloid progenitor cells return to baseline cell division (FIG. 2) [9] [h] | PK half-life in humans [10] [h]
1 | 5 to 6 | 52 | 0.7 to 1 |  | CC(C)N1CCN(c2ccc(Nc3ncc4cc5n(c4n3)C3(CCCCC3)CNC5=O)nc2)CC1 [GG] | significant inhibition of cellular proliferation | reduction in EdU incorporation at 12 hours which was starting to return to normal at 24 hours | significant inhibition of cellular proliferation | marked decrease in tumor volume | 85 |  |  |  |  |  |  | 
2 |  |  |  | approximately one week | CC(=O)c1c(C)c2cnc(Nc3ccc(N4CCNCC4)cn3)nc2n(C2CCCC2)c1=O [PD0332991, 6-acetyl-8-cyclopentyl-5-methyl-2-(5-piperazin-1-yl-pyridin-2-ylammino)-8H-pyrido-[2,3-d]-pyrimidin-7-one] | significant inhibition of cellular proliferation |  | significant inhibition of cellular proliferation |  |  | took significantly longer to return to baseline levels of cell division | more than forty hours | greater than 36 hours | 48 | greater than 36 hours | 48 | 27
